Tests used:
castrated male rats [1] = conditions: single intravenous dose of 3 mg/kg; cited from earlier work
FSH = experiment: Earlier clinical trial, single 2.5 mg buccal E2-CDS: FSH suppression; type: in vivo, postmenopausal women; conditions: first 24 hour post-dose, 2.5 mg E2-CDS
Source text: (§1) A brief evaluation of the results follows:

prolactin = experiment: Phase I clinical study: prolactin; type: in vivo, postmenopausal women
Source text: as §1

LH = experiment: Plasma LH in orchidectomized male rats (radioimmunoassay); type: in vivo, Sprague Dawley rats
Procedure: Four weeks following orchidectomy, groups of rats were treated with one of the following drug doses via tail vein injection: E2-CDS 0.03, 0.3, and 3 mg/kg. Blood samples were collected by orbital sinus puncture under light ether anesthesia. The samples were stored at 4EC for one hour and centrifuged at 1,000 g for 10 minutes. Plasma was separated and stored at −80EC until assayed. Plasma LH concentrations from individual samples were measured by double antibody radioimmunoassay kits obtained from Amersham Pharmacia Biotech, Rome, Italy. […] The limit of detection was 15 pg/mL.
(§2) Behavioral changes were analyzed using the Mann-Whitney U test (Siegel, Nonparametric Statistics for the Behavioral Sciences, New York; McGraw-Hill Book Company, Inc., 1956). The Fisher exact test was used for percentage comparisons (Zar, Biostatistical Analysis, Prentice Hall, Inc., Englewood Cliffs, N.J., 1974). Serum LH data were analyzed for each time and treatment group by analysis of variance (ANOVA) followed by Bonferroni posthoc test.
(§3) The testing described above was repeated using a dose of 0.03 mg/kg administered as a single i.v. injection, and a dose of 0.01 mg/kg with daily i.v. administration for 10 days. E2-CDS stock solution (40%) was diluted in 27% HPβCD solution.

castrated male rats [2] = experiment: Male rat sexual (copulatory) behavior after orchidectomy; type: in vivo, Sprague Dawley rats
Procedure: Adult male Sprague Dawley rats (300-400 g) from Charles River Hungary Ltd., Godollo, Hungary, were used. Animals were kept in community cages (4 animals/cage) in a climate-controlled room (23∀2EC), with a 14 hour light, 10 hour dark cycle of artificial lighting, using reversed light/dark cycle. […] These hormones were dissolved in sunflower oil.
After establishment of basal behaviors as discussed below, selected animals were orchidectomized via a single midventral incision and were rehoused.
After repeated testing of animals recovered from orchidectomy as discussed below, rats were divided into four groups and treated intravenously, via a single tail vein injection, with one of the following: group 1: control (27% hydroxypropyl-β-cyclodextrin); group 2: 0.03 mg/kg E2-CDS; group 3: 0.3 mg/kg E2-CDS; and group 4: 3 mg/kg E2-CDS.
Mating was observed during the dark cycle in a plexi observation cage in a room where only a dim red light was on. The male was placed in the observation cage 5 minutes prior to the female.
The following parameters were then measured: • Mount latency (ML): the time from the introduction of the female to the initial mount or intromission; • Intromission latency (IL): the time from introduction of the female to the first intromission; and • Ejaculatory latency (EL): the time from the first intromission to ejaculation.
Sessions were considered negative if IL exceeded 15 minutes.
To establish basal behavior, each male was tested every 5 days until four successive and consistent behavioral patterns were achieved. This pretesting lasted for about four weeks. Approximately half of the animals tested were deemed suitable for orchidectomy.
Twenty-eight days after healing from orchidectomy, the animals were tested again (Day 0) and divided into 4 experimental groups. Only animals displaying ejaculation latencies greater than 15 minutes were included in the study.
Tests of male sexual behavior were conducted 3, 7, 14, 21, 28, 35 and 42 days after drug administration or until the effect disappeared, i.e. until no statistically significant difference was found between groups during two consecutive tests.
Behavioral patterns and related times were recorded manually by skilled observers.
as §2, §3
The copulatory behavior of E2-CDS treated groups was compared to that of the HPβCD control group at 1, 3, 7, 14, and 21 days after i.v. drug administration in the 0.03 mg/kg group and at 1, 3, 7, 14 and 21 days after initial i.v. drug administration in the 0.01 mg/kg×10 days group.

[3] = 0.01 mg/kg i.v. daily for 10 days
[4] = 0.01 mg/kg i.v. daily for 10 days, by day 14
[5] = 3.0 mg/kg single i.v., days 14, 21 and 28

CN1C=CCC(C(=O)O[C@H]2CC[C@H]3[C@@H]4CCc5cc(O)ccc5[C@H]4CC[C@]23C)=C1 [E2-CDS, 17β-[(1-methyl-1,4-dihydro-3-pyridinyl)carbonyloxy]estra-1,3,5(10)-trien-3-ol]
duration of improved masculine sexual behavior (castrated male rats [1]): 28 days
extent of maximum FSH suppression (FSH): 12.5%
increase in prolactin levels compared to baseline (prolactin; end of the study (day 13), Group A): 29.8%
increase in prolactin levels compared to baseline (prolactin; end of the study (day 16), Group B): 16%
plasma LH level (LH; 0.01 mg/kg, 10 daily i.v. injections, day 3 to day 14): significantly reduced
plasma LH levels (LH; 0.03 mg/kg single i.v., first study): not reduced
plasma LH level (LH; 0.03 mg/kg single injection, repeated examination, day 3 only): significantly reduced
plasma LH levels (LH; 0.3 mg/kg single i.v., days 1, 3 and 7): significantly reduced
plasma LH levels (LH; 3 mg/kg single i.v., throughout 28 days): suppressed significantly
intromission frequency (castrated male rats [2]; [3]): not increased significantly
intromission latency (castrated male rats [2]; [3]): reduced significantly
mount frequency (castrated male rats [2]; [3]): increased significantly
mount latency (castrated male rats [2]; [3]): reduced significantly
intromission performance restored (% of animals) (castrated male rats [2]; [4]): 50%
mounting performance restored (% of animals) (castrated male rats [2]; [4]): 67%
effect on re-establishment of copulatory behavior (castrated male rats [2]; 0.03 mg/kg single i.v.): no statistically significant effect
sexual activity (castrated male rats [2]; 0.03 mg/kg single i.v., repeated testing): improved sexual activity, but it was not statistically significant
mounting performance restored (% of the animals) (castrated male rats [2]; 0.3 mg/kg single i.v., by day 7): 100%
mount frequency (castrated male rats [2]; 0.3 mg/kg single i.v., day 7): significantly increased
mount latency (castrated male rats [2]; 0.3 mg/kg single i.v., day 7 through day 28): sharply reduced
mounting performance restored (% of the animals) (castrated male rats [2]; 3.0 mg/kg single i.v., by day 14 and day 21): 100%
mount latency (castrated male rats [2]; 3.0 mg/kg single i.v., day 7 through day 28): sharply reduced
intromission performance (castrated male rats [2]; 3.0 mg/kg single i.v., day 14 through day 28): improved in a statistically significant manner
mount frequency (castrated male rats [2]; 3.0 mg/kg single i.v., days 7, 14, 21 and 28): significantly increased
intromission frequency (castrated male rats [2]; [5]): statistically significant increase
intromission latency (castrated male rats [2]; [5]): decrease
